The test system of assay [1] is CAG-C38 iCasp9 iPSC clone with targeted insertion of sr39TK into H11 locus. Put plainly: Dual suicide gene safe guard system killing in vitro (iCasp9 at AAVS1, sr39TK at H11). Format: cell-based, human. From the text: In addition to CAG-iCasp9 integrated into AAVS1 locus, CAG-sr39TK was integrated into H11 safe harbor in CAG-C38 clonal iPSC using targeted insertion method described herein.

Assay [2] concerns puro-selected 293T cells with CMV-driven iCasp9 (AAVS1-G1.0) at AAVS1 locus. Kind of assay: In vitro inducible killing by AP1903, 7AAD staining and flow cytometry, 293T cells. It counts as cell-based. The note with it: AP1903 10 nM or 120 nM, 24 hrs, DMSO control, n=2. From the text: (§1) In vitro inducible killing of iCasp9-integrated iPSCs: The chemical inducer of dimerization (CID; AP1903) was purchased from Medchemexpress (Monmouth Junction, NJ). Twenty-four hours after CID exposure, the cells were harvested and stained with 7-amino actinomycin D (7-AAD) according to the manufacturer's instruction (BD Biosciences). The percentage of 7-AAD positive cells were quantified as dead cells by flow cytometry (Guava, EMD Millipore, Billerica, MA) and analyzed with flowjo software.
A donor construct encompassing CMV-driven iCasp9 (AAVS1-G1.0) was designed to target the AAVS1 locus (FIG. 1A) and to integrate the Casp9 suicide gene to 293T cells. The donor construct also comprise GFP and puromycin genes, the expression of which are driven by AAVS1 endogenous promoter once the targeted insertion takes place (FIG. 1A). 293T cells were transfected with ZFNs specific to AAVS1 locus and the donor construct AAVS1-G1.0. Three days after transfection, the puromycin selection was started and continued for 12 days. The puro-selected population was analyzed by flow cytometry for GFP expression, and a range of GFP expression levels were observed. It was observed that about 82% of the puro-selected cell population expressed GFP (FIG. 1B). […] The treated cells were then harvested and stained with 7AAD, which selectively stains membrane-compromised dying cells, and analyzed by flow cytometry. […]

For the next assay, the system named is iCasp9-integrated iPSCs. Put plainly: In vitro inducible killing of iCasp9-integrated iPSCs by AP1903, 7AAD/GFP flow cytometry. It counts as cell-based, human. The note with it: for cell death mediated by AP1903 (7AAD negative cells percentage): 24 hrs.
Description: as §1
Similar to 293T cells, hiPSCs were transfected with ZFNs specific to AAVS1 locus and a donor construct encompassing CMV-driven iCasp9 (AAVS1-G1.0). The puromycin selection was started 3 days after transfection and continued for 16 days. The puro-resistant cells were analyzed by flow cytometry for GFP expression. Three populations based on the GFP intensity, GFP (neg), GFP (low) and GFP (hi) were sorted by flow cytometry (FIG. 1E). […] The treated cells were harvested and stained with 7AAD and analyzed by flow cytometry. […] However, in contrast to 293T cells with targeted Casp9 insertion at AAVS1 locus, cell death mediated by the AP1903 was not detected in all treatments in iPSCs with targeted Casp9 insertion at AAVS1 locus (FIG. 1F). […]
Because in the previous study puromycin selection under the AAVS1 promoter was robustly expressed to maintain viability and growth during selection, next a donor construct encompassing iCasp9 was designed to target the AAVS1 locus with endogenous AAVS1 promoter driving iCasp9 gene expression upon insertion (and GFP, and puromycin marker genes) (FIG. 2A). hiPSCs were transfected with ZFNs specific to AAVS1 locus and the donor construct encompassing iCasp9 under the control of AAVS1 endogenous promoter. […] The treated cells were harvested and stained with 7AAD and analyzed by flow cytometry. […] However, cell death mediated by the AP1903 was not detected in all treatments in iPSCs with targeted insertion of Casp9 at AAVS1 locus, and controlled Casp9 expression by endogenous AAVS1 promoter (FIG. 2C). […]
(In flow cytometry, cells or beads pass a laser one at a time.)

From patent publication US12642852B1, “Genomic engineering of pluripotent cells” (Fate Therapeutics, Inc., priority 2015, dated 2026) come the findings set out here.

SMILES strings stand for the structures.

In the case of `CC[C@H](C(=O)N1CCCC[C@H]1C(=O)O[C@H](CCc1ccc(OC)c(OC)c1)c1cccc(OCC(=O)NCCNC(=O)COc2cccc([C@@H](CCc3ccc(OC)c(OC)c3)OC(=O)[C@@H]3CCCCN3C(=O)[C@@H](CC)c3cc(OC)c(OC)c(OC)c3)c2)c1)c1cc(OC)c(OC)c(OC)c1` [AP1903], the inducible killing entry in assay [1] (10 nM AP1903 alone for two days) was “inducible killing of most cells but rare cells remained”. For the same compound, in assay [2], the “cell death (7AAD negative cells percentage)” value is “Significant cell death was detected”. For the same compound, the “cell death mediated by AP1903 (7AAD negative cells percentage)” value is reported as “not detected” with iCasp9-integrated iPSCs (hiPSCs with CMV-driven iCasp9, GFP (neg), GFP (low), GFP (hi) populations, 10 nM or 100 nM) and “not detected” in the assay on iCasp9-integrated iPSCs (iPSCs with iCasp9 under endogenous AAVS1 promoter). Also, in the assay on iCasp9-integrated iPSCs (hiPSCs with EF1α-driven iCasp9 at AAVS1, puromycin selected 20 days), the “AP1903 cell death induction of GFP positive cells” value is “although few, were responsive”.
On to `Nc1nc(O)c2ncn(COC(CO)CO)c2n1` [GCV, Ganciclovir], for which the inducible killing result in assay [1] (25 μg/mL GCV alone for nine days) is given as “expanded GCV-refractory cells”.
